Measured values: patent US20230250084A1, “PYRAZOLYL PYRIMIDINONE COMPOUNDS AND THE USES THEREOF” (Purdue Research Foundation, priority 2019, published 2023)

Key:
Type in all cases: cell-based
[1] = biological target: T1, AC1 (Homo sapiens, UniProt Q08828); assay: cAMP accumulation (HTRF) in HEK cells stably expressing AC1, stimulated with A23187; set-up: expressed in transfected cells; host or cells: HEK cells stably expressing AC1 (HEK-AC1), G418 selection
Experimental: The screen was carried out using HEK cells stably expressing AC1 (HEK-AC1) and cyclic AMP accumulation was stimulated using the Ca^2+ ionophore, A23187 to selectively activate AC1. […]
(§1) The primary technology we employed to measure cAMP accumulation was a homogenous time-resolved fluorescence (HTRF) assay, the same technology utilized in the primary screen. […]
(§2) Briefly, cryopreserved cells were thawed, resuspended in optiMEM (Life Technologies), and plated in white, flat bottom, low-volume, tissue culture-treated 384 well plates (PerkinElmer, Shelton, Conn.). Plates with cells were incubated in a 37° C. humidified incubator for 1 h. Inhibitors were added and plates were incubated at room temperature for 30 min followed by the addition of AC stimulants in the presence of 500 μM IBMX. Cells were incubated at room temperature for 1 h and cAMP accumulation was measured using Cisbio's cAMP kit (Cisbio Bioassays, Bedford, Mass.) according to the manufacturer's instructions.

[2] = biological target: T2, AC8 (Homo sapiens, UniProt P40145); assay: cAMP accumulation (HTRF) in HEK cells stably expressing AC8, stimulated with A23187; set-up: expressed in transfected cells; host or cells: HEK cells stably expressing AC8 (HEK-AC8), hygromycin B selection; settings: Table 1; for Max AC8 Inh (%): maximum inhibition of AC8; for IC50: HEK-AC8 cells, A23187-stimulated cAMP accumulation
Experimental: as §1, §2
Target sequence in this assay (P40145 whole entry, species assumed): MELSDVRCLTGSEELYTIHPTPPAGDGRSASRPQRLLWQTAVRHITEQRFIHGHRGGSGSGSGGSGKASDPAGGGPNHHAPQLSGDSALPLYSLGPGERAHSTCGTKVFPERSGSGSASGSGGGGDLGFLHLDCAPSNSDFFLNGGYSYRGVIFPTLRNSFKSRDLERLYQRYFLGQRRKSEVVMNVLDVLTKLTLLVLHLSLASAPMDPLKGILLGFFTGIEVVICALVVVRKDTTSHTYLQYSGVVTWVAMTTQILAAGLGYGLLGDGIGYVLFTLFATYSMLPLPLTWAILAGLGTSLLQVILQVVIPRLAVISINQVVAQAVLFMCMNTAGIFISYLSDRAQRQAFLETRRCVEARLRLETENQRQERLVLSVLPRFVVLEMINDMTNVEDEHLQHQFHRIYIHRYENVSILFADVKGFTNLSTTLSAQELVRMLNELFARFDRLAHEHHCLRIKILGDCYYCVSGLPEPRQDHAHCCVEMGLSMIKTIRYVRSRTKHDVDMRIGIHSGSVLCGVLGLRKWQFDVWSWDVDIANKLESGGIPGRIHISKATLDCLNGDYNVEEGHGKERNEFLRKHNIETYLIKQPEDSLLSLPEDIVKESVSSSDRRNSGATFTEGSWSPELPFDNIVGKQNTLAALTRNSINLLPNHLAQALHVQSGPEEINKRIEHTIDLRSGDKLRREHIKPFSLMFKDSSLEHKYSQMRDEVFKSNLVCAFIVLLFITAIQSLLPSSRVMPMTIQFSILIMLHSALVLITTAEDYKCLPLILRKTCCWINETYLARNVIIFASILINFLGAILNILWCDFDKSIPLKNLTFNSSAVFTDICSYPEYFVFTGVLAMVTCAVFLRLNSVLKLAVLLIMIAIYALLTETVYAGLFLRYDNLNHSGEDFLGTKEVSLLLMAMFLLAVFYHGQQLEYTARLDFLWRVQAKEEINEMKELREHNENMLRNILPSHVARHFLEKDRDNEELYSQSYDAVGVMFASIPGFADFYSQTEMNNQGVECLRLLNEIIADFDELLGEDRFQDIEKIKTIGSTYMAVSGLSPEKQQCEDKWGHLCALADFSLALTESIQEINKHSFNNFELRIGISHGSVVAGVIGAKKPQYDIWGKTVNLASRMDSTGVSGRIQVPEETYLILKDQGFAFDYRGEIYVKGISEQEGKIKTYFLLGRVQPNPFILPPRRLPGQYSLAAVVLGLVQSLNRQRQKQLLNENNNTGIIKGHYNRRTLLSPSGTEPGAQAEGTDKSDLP

[3] = biological target: T1, AC1; assay: Adenylyl cyclase cAMP accumulation assay, HEK-ACA3/6 cells overexpressing human AC1; set-up: expressed in transfected cells; host or cells: HEK-ACA3/6 cells (so in the source) overexpressing human AC1; settings: Table 2; 3 μM A23187 + 0.5 mM IBMX, HTRF cAMP; read-out: AC1 IC50 (μM) ± SEM
Experimental: Cryopreserved HEK-ACA3/6 cells overexpressing human AC1, AC2, AC5, or AC8 were transferred to a 15 mL Falcon tube and gently resuspended in prewarmed Opti-MEM.50 The cells were centrifuged for 5 min at 150 g, the supernatant was discarded, and the cell pellet was resuspended in 10 mL for a second centrifugation step. Then, the cells were counted, plated in a white opaque 384-well plate, and incubated for 1 h in a 37° C. incubator supplemented with 5% CO2. The hit compounds' working solutions were prepared in prewarmed Opti-MEM, and successive serial dilutions were prepared using a Precision 2000 automated pipetting system. Dose*-response curves were generated for each hit compound using a threefold serial dilution starting at 30 μM concentration (at least 6-points per curve). Compounds were added to the assay plates and incubated for 30 min at room temperature. AC activity was selectively stimulated on each AC isoform with 3 μM A23187 (AC1 and AC8), 100 nM PMA (AC2), or a low concentration (1 μM) of the AC activator, forskolin (AC5). All stimulants of AC activity were added in combination with IBMX at a final concentration of 0.5 mM. After 1 h incubation with the stimulant at room temperature, cAMP accumulation was detected using the fluorescence-based Cisbio HTRF cAMP detection kit. […] Percent inhibition at the highest concentration was used to determine max % inhibition (Max AC8% Inhibition). […]

[4] = biological target: T2, AC8; assay: Adenylyl cyclase cAMP accumulation assay, HEK-ACA3/6 cells overexpressing human AC8; set-up: expressed in transfected cells; host or cells: HEK-ACA3/6 cells (so in the source) overexpressing human AC8; settings: Table 2
Experimental: Cryopreserved HEK-ACA3/6 cells overexpressing human AC1, AC2, AC5, or AC8 were transferred to a 15 mL Falcon tube and gently resuspended in prewarmed Opti-MEM.50 The cells were centrifuged for 5 min at 150 g, the supernatant was discarded, and the cell pellet was resuspended in 10 mL for a second centrifugation step. Then, the cells were counted, plated in a white opaque 384-well plate, and incubated for 1 h in a 37° C. incubator supplemented with 5% CO2. The hit compounds' working solutions were prepared in prewarmed Opti-MEM, and successive serial dilutions were prepared using a Precision 2000 automated pipetting system. Dose*-response curves were generated for each hit compound using a threefold serial dilution starting at 30 μM concentration (at least 6-points per curve). Compounds were added to the assay plates and incubated for 30 min at room temperature. AC activity was selectively stimulated on each AC isoform with 3 μM A23187 (AC1 and AC8), 100 nM PMA (AC2), or a low concentration (1 μM) of the AC activator, forskolin (AC5). All stimulants of AC activity were added in combination with IBMX at a final concentration of 0.5 mM. After 1 h incubation with the stimulant at room temperature, cAMP accumulation was detected using the fluorescence-based Cisbio HTRF cAMP detection kit. […] Percent inhibition at the highest concentration was used to determine max % inhibition (Max AC8% Inhibition).
The Max AC8 inhibition is a description of the maximum efficacy of molecules against AC8.
Target sequence in this assay (P40145 whole entry): as the sequence (P40145 whole entry, species assumed) above

[5] = Table 1, HEK-AC1 cells, A23187-stimulated cAMP accumulation, read-out: AC1 IC50

T1 sequence (Q08828 whole entry): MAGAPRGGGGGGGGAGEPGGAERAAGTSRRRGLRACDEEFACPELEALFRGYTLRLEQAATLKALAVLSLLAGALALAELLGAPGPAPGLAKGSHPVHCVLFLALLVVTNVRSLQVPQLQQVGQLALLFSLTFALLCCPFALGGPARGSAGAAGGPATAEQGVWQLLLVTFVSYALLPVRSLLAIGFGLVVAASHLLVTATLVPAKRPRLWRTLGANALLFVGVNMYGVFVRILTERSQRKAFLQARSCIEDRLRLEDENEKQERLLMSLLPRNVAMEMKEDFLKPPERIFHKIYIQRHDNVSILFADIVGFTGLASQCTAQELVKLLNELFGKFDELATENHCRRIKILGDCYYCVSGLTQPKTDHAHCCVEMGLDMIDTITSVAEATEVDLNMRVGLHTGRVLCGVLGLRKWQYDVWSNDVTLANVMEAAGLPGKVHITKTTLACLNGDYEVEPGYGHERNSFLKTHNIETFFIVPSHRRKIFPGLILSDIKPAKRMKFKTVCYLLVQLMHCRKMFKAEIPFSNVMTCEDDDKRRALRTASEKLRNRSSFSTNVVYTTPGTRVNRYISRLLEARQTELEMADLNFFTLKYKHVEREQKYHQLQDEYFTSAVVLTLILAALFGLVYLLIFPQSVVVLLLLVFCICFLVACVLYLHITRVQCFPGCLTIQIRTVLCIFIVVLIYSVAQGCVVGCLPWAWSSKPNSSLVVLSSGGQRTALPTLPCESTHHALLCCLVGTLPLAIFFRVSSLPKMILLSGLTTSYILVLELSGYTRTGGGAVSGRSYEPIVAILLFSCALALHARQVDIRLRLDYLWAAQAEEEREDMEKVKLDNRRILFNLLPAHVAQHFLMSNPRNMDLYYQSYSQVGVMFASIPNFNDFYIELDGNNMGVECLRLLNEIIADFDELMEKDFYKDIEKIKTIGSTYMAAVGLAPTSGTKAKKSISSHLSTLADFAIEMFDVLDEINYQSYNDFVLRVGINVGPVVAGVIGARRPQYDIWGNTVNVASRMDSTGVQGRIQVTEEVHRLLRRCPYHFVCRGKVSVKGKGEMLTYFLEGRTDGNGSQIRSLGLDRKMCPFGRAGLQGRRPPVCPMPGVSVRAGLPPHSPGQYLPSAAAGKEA

IC50 [1, 5]	Max AC8 Inh (%) [2]	IC50 [2]	IC50 [3]	IC50 ([4]; 3 μM A23187 + 0.5 mM IBMX, HTRF cAMP, read-out: AC8 IC50 (μM) ± SEM)	inhibition at up to 30 µM ([4]; percent inhibition at the highest concentration (dilution starting at 30 μM), read-out: Max AC8 % inhibition)	Structure (SMILES)	IC50 [1]
300 nM	32%	9.5 µM	–	–	–	CCc1cc(=O)[nH]c(-n2nc(C)cc2NC(=O)c2ccc(Cl)cc2)n1 [AC10058, 4-chloro-N-(1-(6-ethyl-4-oxo-1,4-dihydropyrimidin-2-yl)-3-methyl-1H-pyrazol-5-yl)benzamide]	–
2700 nM	0%	–	–	–	–	CCc1cc(=O)[nH]c(-n2nc(C)cc2NC(=O)c2ccccc2)n1 [AC10068, N-(1-(6-ethyl-4-oxo-1,4-dihydropyrimidin-2-yl)-3-methyl-1H-pyrazol-5-yl)benzamide]	–
6100 nM	20%	–	–	–	–	CCc1cc(=O)[nH]c(-n2nc(C)cc2NC(=O)c2ccco2)n1 [AC10069, N-(1-(6-ethyl-4-oxo-1,4-dihydropyrimidin-2-yl)-3-methyl-1H-pyrazol-5-yl)furan-2-carboxamide]	–
3200 nM	–	23 µM	–	–	–	CCc1cc(=O)[nH]c(-n2nc(C)cc2NC(=O)c2ccc(OCOC)cc2)n1 [AC10071, N-(1-(6-ethyl-4-oxo-1,4-dihydropyrimidin-2-yl)-3-methyl-1H-pyrazol-5-yl)-4-(methoxymethoxy)benzamide]	–
2800 nM	21%	50 µM	–	–	–	CCc1cc(=O)[nH]c(-n2nc(C)cc2NC(=O)c2ccccc2CC)n1 [AC10074, 2-ethyl-N-(1-(6-ethyl-4-oxo-1,4-dihydropyrimidin-2-yl)-3-methyl-1H-pyrazol-5-yl)benzamide]	–
10000 nM	59%	50 µM	–	–	–	CCc1cc(=O)[nH]c(-n2nc(C)cc2NC(=O)Cc2cccc(C)c2)n1 [AC10075, N-(1-(6-ethyl-4-oxo-1,4-dihydropyrimidin-2-yl)-3-methyl-1H-pyrazol-5-yl)-2-(m-tolyl)acetamide]	–
–	0%	33 µM	–	–	–	CCc1cc(=O)[nH]c(-n2nc(C)cc2NC(=O)c2ccc(OC)cc2)n1 [AC10076, N-(1-(6-ethyl-4-oxo-1,4-dihydropyrimidin-2-yl)-3-methyl-1H-pyrazol-5-yl)-4-methoxybenzamide]	–
2400 nM	11%	–	–	–	–	CCc1cc(=O)[nH]c(-n2nc(C)cc2NC(=O)c2ccccc2C)n1 [AC10077, N-(1-(6-ethyl-4-oxo-1,4-dihydropyrimidin-2-yl)-3-methyl-1H-pyrazol-5-yl)-2-methylbenzamide]	–
700 nM	27%	48 µM	–	–	–	CCc1cc(=O)[nH]c(-n2nc(C)cc2NC(=O)c2ccc(C)cc2)n1 [AC10080, N-(1-(6-ethyl-4-oxo-1,4-dihydropyrimidin-2-yl)-3-methyl-1H-pyrazol-5-yl)-4-methylbenzamide]	–
400 nM	12%	–	–	–	–	CCc1cccc(C(=O)Nc2cc(C)nn2-c2nc(CC)cc(=O)[nH]2)c1 [AC10081, 3-ethyl-N-(1-(6-ethyl-4-oxo-1,4-dihydropyrimidin-2-yl)-3-methyl-1H-pyrazol-5-yl)benzamide]	–
500 nM	19%	37 µM	–	–	–	CCc1ccc(C(=O)Nc2cc(C)nn2-c2nc(CC)cc(=O)[nH]2)cc1 [AC10082, 4-ethyl-N-(1-(6-ethyl-4-oxo-1,4-dihydropyrimidin-2-yl)-3-methyl-1H-pyrazol-5-yl)benzamide]	–
400 nM	28%	24 µM	–	–	–	CCc1cc(=O)[nH]c(-n2nc(C)cc2NC(=O)c2cccc(C(C)C)c2)n1 [AC10087, N-(1-(6-ethyl-4-oxo-1,4-dihydropyrimidin-2-yl)-3-methyl-1H-pyrazol-5-yl)-3-isopropylbenzamide]	–
400 nM	52%	9.7 µM	–	–	–	CCc1cc(=O)[nH]c(-n2nc(C)cc2NC(=O)c2cccc(SC)c2)n1 [AC10088, N-(1-(4-ethyl-6-oxo-1,6-dihydropyrimidin-2-yl)-3-methyl-1H-pyrazol-5-yl)-3-(methylthio)benzamide]	–
700 nM	41%	18 µM	–	–	–	CCc1cc(=O)[nH]c(-n2nc(C)cc2NC(=O)c2cccc(C(F)(F)F)c2)n1 [AC10089, N-(1-(4-ethyl-6-oxo-1,6-dihydropyrimidin-2-yl)-3-methyl-1H-pyrazol-5-yl)-3-(trifluoromethyl)benzamide]	–
400 nM	48%	6.9 µM	–	–	–	CCc1cc(=O)[nH]c(-n2nc(C)cc2NC(=O)c2cccc(Cl)c2)n1 [AC10090, 3-chloro-N-(1-(6-ethyl-4-oxo-1,4-dihydropyrimidin-2-yl)-3-methyl-1H-pyrazol-5-yl)benzamide]	–
1200 nM	55%	12 µM	–	–	–	CCc1cc(=O)[nH]c(-n2nc(C)cc2NC(=O)c2cccc(F)c2)n1 [AC10091, N-(1-(6-ethyl-4-oxo-1,4-dihydropyrimidin-2-yl)-3-methyl-1H-pyrazol-5-yl)-3-fluorobenzamide]	–
900 nM	52%	14 µM	–	–	–	CCc1cc(=O)[nH]c(-n2nc(C)cc2NC(=O)c2ccc(F)cc2)n1 [AC10092, N-(1-(6-ethyl-4-oxo-1,4-dihydropyrimidin-2-yl)-3-methyl-1H-pyrazol-5-yl)-4-fluorobenzamide]	–
–	46%	15 µM	–	–	–	CCc1cc(=O)[nH]c(-n2nc(C)cc2NC(=O)c2ccccn2)n1 [AC10093, N-(1-(6-ethyl-4-oxo-1,4-dihydropyrimidin-2-yl)-3-methyl-1H-pyrazol-5-yl)picolinamide]	–
–	–	–	7.49 ± 2.9 µM	58.9 ± 36.1 µM	48%	Cc1cc(NCc2ccc(Cl)cc2)n(-c2nc3c(c(=O)[nH]2)CCC3)n1 [AC10110A]	–

Structure (SMILES)	IC50 [1, 5]	Max AC8 Inh (%) [2]	IC50 [2]	IC50 [3]	IC50 ([4]; 3 μM A23187 + 0.5 mM IBMX, HTRF cAMP, read-out: AC8 IC50 (μM) ± SEM)	inhibition at up to 30 µM ([4]; percent inhibition at the highest concentration (dilution starting at 30 μM), read-out: Max AC8 % inhibition)	IC50 [1]
CCc1cc(=O)[nH]c(-n2nc(C)cc2NC(=O)c2ccccc2F)n1 [AC10048, N-(1-(6-ethyl-4-oxo-1,4-dihydropyrimidin-2-yl)-3-methyl-1H-pyrazol-5-yl)-2-fluorobenzamide]	1500 nM	46%	–	–	–	–	–
CCc1cc(=O)[nH]c(-n2nc(C)cc2NC(=O)c2cccc(OC)c2)n1 [AC10073, N-(1-(6-ethyl-4-oxo-1,4-dihydropyrimidin-2-yl)-3-methyl-1H-pyrazol-5-yl)-3-methoxybenzamide]	–	5%	–	–	–	–	1000 nM
CCc1cc(=O)[nH]c(-n2nc(C)cc2NC(=O)c2cccc(C)c2)n1 [AC10079, N-(1-(6-ethyl-4-oxo-1,4-dihydropyrimidin-2-yl)-3-methyl-1H-pyrazol-5-yl)-3-methylbenzamide]	–	27%	27 µM	–	–	–	400 nM
